Laboratory results taken from publication PMC5325326, “Evaluation of the intestinal permeability of rosemary (Rosmarinus officinalis L.) extract polyphenols and terpenoids in Caco-2 cell monolayers” (PLoS ONE, 2017).
“Also recorded” adds a separate entry of the source. Read-outs that look alike come from different tables or passages of the source.

Key:
[1] = BCS classification based on experimental Papp (AB direction, free formulation); assay type: in vitro ADME; parameters: dose or concentration left out as unconfirmed; conditions: human, Caco-2, pH 7.4, versus metoprolol Papp, Table 2, read-out: Permeability Based on Papp
Text: The Biopharmaceutical Classification System (BCS) was developed by Amidon and coworkers twenty years ago to classify drugs for a waiver of in vivo bioequivalence studies. This system classifies drugs into four categories based on their intestinal permeability and solubility (see S1 Table), and currently this system is accepted worldwide by researchers and governmental institutions such as the FDA and EMA. In addition to its regulatory use, BCS is a tool for drug development because it helps identify the limiting factors in the absorption process. In this work, the 24 compounds identified from RE were classified individually according to this system to obtain relevant information regarding their absorbed oral fraction. For this purpose, only data derived from the free extract permeation were used.
Log P values were obtained for all compounds using ChemDraw software® Ultra version 8.0 (CambridgeSoft Corp. USA) and are shown in Table 2. The Log P value is a widely accepted parameter to express the lipophilicities of biological drugs in medicinal and agro chemistry. According to BCS, compounds are divided into high permeability (Class I: high permeability, high solubility; Class II: high permeability, low solubility) or low permeability (Class III: low permeability, high solubility; Class IV: low permeability, low solubility) categories by comparing with the Log P value (2.18) of the standard metoprolol, which is the reference compound employed for this purpose. Based on this parameter, the permeabilities of all compounds derived from RE were tabulated as high or low (Table 2). Moreover, the Papp value of this reference drug (0.6 x 10^−4 cm/s) was also available, which allowed us to establish another classification for the permeabilities of RE compounds based on this parameter, using the Papp values of the compounds obtained in the AB direction only for the free formulations (Table 2). Therefore, the Log P and Papp values were used in Table 2 to classify compounds as […] drugs for permeability, providing two different classifications based on the partition coefficient and the intestinal permeability.
As no information was available regarding the maximum doses of these compounds, two putative scenarios were selected to simulate a high-activity drug, dosed as a 10-mg tablet, or a low-activity drug, dosed as a 100-mg tablet. […] In the present study, all compounds were classified for BCS by considering the experimental data for absorption (Papp) and the calculated Log P value (Table 2). According to the Log P value, most compounds belong to the high-permeability classes (I and II), with class II being the most numerous (Fig 2A), except in the case of the flavonoids. However, when experimental Papp values were used for classification, the results changed dramatically, and low-permeability classes (III and IV) became the most abundant (Fig 2B). This classification was nearly independent of the solubility scenario and considered dose (compare Fig 2 and S1 Fig). […] Most flavones in RE were classified as class III (low permeability, high solubility) and class IV (low permeability, low solubility) with the exception of apigenin, for which no experimental Papp could be determined and, consequently, no BCS classification was proposed. […] The phenylpropanoid derivatives shogaol and shogaol isomer (gingerol-like compounds) were classified as class II (high permeability, low solubility), which is in agreement with the presence of a long saturated carbon chain in their structure that confers a certain degree of hydrophobicity to these compounds.

[2] = Caco-2 monolayer transport study (apparent permeability, Papp) of rosemary extract compounds; conditions: human, Caco-2, pH 7.4
[3] = system: Caco-2 cell monolayers; assay: as above; conditions: for Papp, Encapsulated RE, AB direction: liposomal RE formulation; for Papp, Encapsulated RE, AB direction / Papp, Non encapsulated RE, AB direction: apical to basolateral; for retention by Caco-2 cells: free formulation, AB direction
[4] = system: Caco-2 cell monolayers; parameters: method as in printed; conditions: reference for BCS permeability class; stated as available, ref not given; cited from earlier work
[5] = in vitro; conditions: human, Caco-2, pH 7.4
[6] = system: Caco-2 cell monolayers
[7] = 120 min, 37°C, mean of six replicates
[8] = free RE 200 μg/mL, 120 min, 37°C, mean of six replicates

Compound | Papp at 120 min [1] | Papp A→B at 120 min, 200 μg/mL [2] | Papp B→A at 120 min, 200 μg/mL [2] | also measured
C=C(C)[C@@H]1CC[C@]2(C(=O)O)CC[C@]3(C)[C@H](CC[C@@H]4[C@@]5(C)CC[C@H](O)[C@@](C)(CO)[C@@H]5CC[C@]43C)[C@@H]12 [Anemosapogenin] | < 60 ×10⁻⁶ cm/s | 3.27 ×10⁻⁶ cm/s | 6.17 ×10⁻⁶ cm/s | 
COc1c(C(C)C)cc2c(c1O)[C@@]1(C(=O)O)CCCC(C)(C)[C@@H]1CC2 [12-Methoxycarnosic acid] | < 60 ×10⁻⁶ cm/s | 18.5 ×10⁻⁶ cm/s | 27.7 ×10⁻⁶ cm/s | Papp, Encapsulated RE, AB direction [3, 7]: no absorption
C=C(C)[C@@H]1CC[C@]2(C(=O)O)CC[C@]3(C)[C@H](CC[C@@H]4[C@@]5(C)CC[C@H](O)C(C)(C)[C@@H]5CC[C@]43C)[C@@H]12 [Betulinic acid] |  |  | 6.3 ×10⁻⁶ cm/s | detection in donor chamber, cells and receptor chamber ([3]; encapsulated formulation): detected both in the donor chamber and also inside the cells but was not detected in the receptor chamber; Papp, Non encapsulated RE, AB direction [3, 8]: not absorbed; retention by Caco-2 cells [3]: partly retained by the Caco-2 cells
CC(C)c1cc2c(c(O)c1O)[C@@]13CCCC(C)(C)[C@@H]1[C@H](O)[C@@H]2OC3=O [Epiisorosmanol] | > 60 ×10⁻⁶ cm/s | 104 ×10⁻⁶ cm/s | 9.23 ×10⁻⁶ cm/s | Papp A→B at 120 min [2]: 8.18 ×10⁻⁶ cm/s; Papp B→A at 120 min [2]: 13 ×10⁻⁶ cm/s
CC(C)c1cc2c(c(O)c1O)C(=O)C1CCCC(C)(C)C1CC2 (centres unmarked) [Rosmaridiphenol] | < 60 ×10⁻⁶ cm/s | 2.43 ×10⁻⁶ cm/s | 2.68 ×10⁻⁶ cm/s | Papp, Non encapsulated RE, AB direction [3, 8]: E-06 range; Papp, Encapsulated RE, AB direction [3, 7]: no absorption
Cc1cc2c(cc(O)c1=O)[C@@]13CCCC(C)(C)[C@@H]1C[C@@H]2OC3 [Miltipolone] | < 60 ×10⁻⁶ cm/s | 17.6 ×10⁻⁶ cm/s |  | Papp B→A at 120 min [2]: 0.168 ×10⁻⁶ cm/s; Papp, Non encapsulated RE, BA direction ([3]; free RE 200 μg/mL, basolateral to apical, 120 min, 37°C, mean of six replicates): not absorbed; also recorded: no absorption; Papp, Encapsulated RE, AB direction [3, 7]: no absorption
COc1cc2oc(-c3ccc(O)cc3)cc(=O)c2c(O)c1OC [Cirsimaritin] | < 60 ×10⁻⁶ cm/s | 33.3 ×10⁻⁶ cm/s | 30.7 ×10⁻⁶ cm/s | 
C=C1CCC2(C(=O)O)CCC3(C)C(=CCC4C5(C)CCC(O)C(C)(C)C5CCC43C)C2C1C (centres unmarked) [Micromeric acid] | < 60 ×10⁻⁶ cm/s | 7.2 ×10⁻⁶ cm/s | 2.45 ×10⁻⁶ cm/s | 
CC(C)c1cc2c(c(O)c1O)[C@@]13CCCC(C)(C)[C@@H]1[C@H](OC3=O)[C@H]2O [Rosmanol] | < 60 ×10⁻⁶ cm/s | 45.9 ×10⁻⁶ cm/s | 44.2 ×10⁻⁶ cm/s | Papp A→B at 120 min [2]: 29.1 ×10⁻⁶ cm/s; Papp B→A at 120 min [2]: 33.3 ×10⁻⁶ cm/s
(9)-Shogaol [[9]-Shogaol] |  |  |  | retention by Caco-2 cells / transport to the receptor chamber ([3]; all samples, amounts below LOQ detected in cytoplasmic fractions): partly retained by Caco-2 cells without any transport to the receptor chamber
CC1(C)CC[C@]2(C(=O)O)CC[C@]3(C)C(=CC[C@@H]4[C@@]5(C)C[C@H](O)[C@H](O)C(C)(C)[C@@H]5CC[C@]43C)[C@@H]2C1 [Augustic acid] | < 60 ×10⁻⁶ cm/s | 7.35 ×10⁻⁶ cm/s | 7.93 ×10⁻⁶ cm/s | 
CC(C)c1cc2c(c(O)c1O)[C@@]13CCCC(C)(C)[C@@H]1C[C@@H]2OC3=O [Carnosol] | < 60 ×10⁻⁶ cm/s | 14.6 ×10⁻⁶ cm/s | 13.5 ×10⁻⁶ cm/s | Papp A→B at 120 min [2]: 0.0403 ×10⁻⁶ cm/s; Papp B→A at 120 min [2]: 0.261 ×10⁻⁶ cm/s
CC1CCC2(C(=O)O)CCC3(C)C(=CCC4C5(C)CCC(O)C(C)(C)C5CCC43C)C2C1(C)O (centres unmarked) [Benthamic acid] | < 60 ×10⁻⁶ cm/s | 5.2 ×10⁻⁶ cm/s | 7.03 ×10⁻⁶ cm/s | 
CC(C)c1cc2c(c(O)c1O)[C@@]1(C(=O)O)CCCC(C)(C)[C@@H]1CC2 [Carnosic acid] |  | 127 ×10⁻⁶ cm/s | 90.4 ×10⁻⁶ cm/s | Papp, Encapsulated RE, AB direction [3, 7]: no absorption
COc1ccc(-c2cc(=O)c3c(O)cc(O)cc3o2)cc1O [Diosmetin] | < 60 ×10⁻⁶ cm/s | 2.5 ×10⁻⁶ cm/s | 4.13 ×10⁻⁶ cm/s | 
CC(C)c1cc2c(c(O)c1O)C13CCCC(C)(C)C1C(OC3=O)C2O (centres unmarked) [Epirosmanol] | < 60 ×10⁻⁶ cm/s | 55.1 ×10⁻⁶ cm/s | 12.1 ×10⁻⁶ cm/s | Papp A→B at 120 min [2]: 1.92 ×10⁻⁶ cm/s; Papp B→A at 120 min [2]: 2.63 ×10⁻⁶ cm/s
COCCc1ccc(OCC(O)CNC(C)C)cc1 (centres unmarked) [metoprolol] |  |  |  | Papp value of the reference drug [4]: 60 ×10⁻⁶ cm/s
CC(C)c1cc(C=O)c2c(c1O)OC(=O)[C@@]21CCCC(C)(C)[C@@H]1C=O [Rosmadial] | < 60 ×10⁻⁶ cm/s | 19 ×10⁻⁶ cm/s | 15.9 ×10⁻⁶ cm/s | Papp A→B at 120 min [2]: 2.67 ×10⁻⁶ cm/s; Papp B→A at 120 min [2]: 12.4 ×10⁻⁶ cm/s
C[C@H]1[C@H](C)CC[C@]2(C(=O)O)CC[C@]3(C)C(=CC[C@@H]4[C@@]5(C)CC[C@H](O)C(C)(C)[C@@H]5CC[C@]43C)[C@H]12 [Ursolic acid] |  |  | 7.2 ×10⁻⁶ cm/s | retention by Caco-2 cells [3]: partly retained by the Caco-2 cells
COc1c(O)cc2oc(-c3ccc(O)cc3)cc(=O)c2c1O [Hispidulin] | < 60 ×10⁻⁶ cm/s | 9.05 ×10⁻⁶ cm/s | 13.1 ×10⁻⁶ cm/s | 
CC(C)c1cc2c(cc1O)[C@@]1(C)CCC(=O)C(C)(C)[C@@H]1CC2 [Hinokione] |  |  |  | Papp B→A at 120 min, 200 μg/mL [5]: 13.6 ×10⁻⁶ cm/s; Papp, Encapsulated RE, AB direction [6]: no absorption; Papp, Non encapsulated RE, AB direction [6]: no absorption
COc1cc(O)c2c(=O)cc(-c3ccc(O)cc3)oc2c1 [Genkwanin] | < 60 ×10⁻⁶ cm/s | 14.9 ×10⁻⁶ cm/s | 16.2 ×10⁻⁶ cm/s | 
